Experimental data from ChEMBL document CHEMBL4266017, “Colony-wise Analysis of a Theonella swinhoei Marine Sponge with a Yellow Interior Permitted the Isolation of Theonellamide I” (J Nat Prod, 2018).

Test system: HeLa
Assay: Cytotoxicity against human HeLa cells assessed as decrease in cell viability after 72 hrs by XTT assay
Type: functional, cell-based

CC(/C=C/c1ccccc1)=C\[C@H](O)[C@@H]1CC(=O)N[C@@H](CO)C(=O)N[C@H]2C[n+]3cc(n([C@@H]4OC[C@H](O)[C@H](O)[C@H]4O)c3)C[C@H](NC(=O)CCC[C@@H](C(=O)[O-])NC(=O)[C@@H](O)CNC(=O)[C@H](Cc3ccc(Br)cc3)NC(=O)[C@H]([C@@H](O)C(N)=O)NC(=O)[C@H](CC(N)=O)NC2=O)C(=O)N[C@@H]([C@H](C)O)C(=O)N[C@@H](CO)C(=O)N[C@@H](Cc2ccccc2)C(=O)N1
IC50: 1.9 µM
